The subject of this assay is RAW 264.7 cells. The assay is described as follows: Quantitative cell-permeability of FITC-labeled aMTD- or rPeptide-fused CRA recombinant proteins (flow cytometry). It is filed as cell-based. The conditions noted are these: for Relative Ratio to aMTD AVE: cell-permeability of rPeptide-fused CRA recombinant protein relative to average of 240 aMTDs. An excerpt:
The aMTDs and rPeptides were fluorescently labeled and compared based on the critical factors for cell-permeability by using flow cytometry and confocal laser scanning microscopy (FIGS. 5 to 8). The cellular uptake of the peptide-fused non-functional cargo recombinant proteins could quantitatively be evaluated in flow cytometry, while confocal laser scanning microscopy allows intracellular uptake to be assessed visually. The analysis included recombinant proteins fused to a negative control [rP38] that has opposite characteristics (hydrophilic and aromatic sequence: […] NO: 952)) to the aMTDs (hydrophobic and aliphatic sequences). Relative cell-permeability (relative fold) of aMTDs to the negative control was also analyzed (Table 23 and FIG. 9). […] RAW 264.7 cells were treated with 10 μM FITC-labeled recombinant proteins for 1 hour at 37° C., washed three times with cold PBS, treated with 0.25% tripsin/EDTA (Sigma-Aldrich, St. Louis, Mo.) for 20 minutes at 37° C. to remove cell-surface bound proteins. Cell-permeability of these recombinant proteins were analyzed by flow cytometry (Guava, Millipore, Darmstadt, Germany) using the FlowJo cytometric analysis software (FIGS. 5 to 6).
On the technique in general: In flow cytometry, cells or beads pass a laser one at a time.

Setting [1] is: cell-permeability of aMTD-fused CRA recombinant protein relative to negative control (A: rP38).
Where [2] appears, read: cell-permeability of aMTD-fused CRA recombinant protein relative to reference CPP (B: MTM12).
Where [3] appears, read: cell-permeability of aMTD-fused CRA recombinant protein relative to reference CPP (C: MTD85).
The mark [4] stands for this setting: cell-permeability relative to negative control rP38 (A type), aMTD-fused CRA recombinant protein, 10 μM FITC-labeled, 1 hour, 37° C., RAW 264.7 cells.
Setting [5] is: cell-permeability relative to reference CPP MTD85 (C type), aMTD-fused CRA recombinant protein, 10 μM FITC-labeled, 1 hour, 37° C., RAW 264.7 cells.
[6] abbreviates: cell-permeability relative to reference CPP MTM12 (B type), aMTD-fused CRA recombinant protein, 10 μM FITC-labeled, 1 hour, 37° C., RAW 264.7 cells.
Setting [7] is: 10 μM FITC-labeled, 1 hour, 37° C., RAW 264.7 cells.

The values below come from patent US10385103B2, “Cell-permeable (ICP)-SOCS3 recombinant protein and uses thereof” (CELLIVERY THERAPEUTICS, INC., priority 2014, dated 2019).

Consider “141 (AVIVLPALAVAP; Amino acid Sequence of aMTD141) [compound 141]”, for which, under setting [1], the “Relative Ratio (Fold) A” value came to 9.4 Fold. The “Relative Ratio (Fold) B” value under setting [2] amounted to 6.3 Fold. Besides, the “Relative Ratio (Fold) C” value under setting [3] was found to be 3.2 Fold.

As to “143 (AVLAVPAVLVAP; Amino acid Sequence of aMTD143) [compound 143]”, under setting [4], the “Relative Ratio (Fold) A” value was 3.3 Fold. Moreover, the “Relative Ratio (Fold) C” value under setting [5] stood at 1.1 Fold. Further, the “Relative Ratio (Fold) B” value under setting [6] was determined as 2.2 Fold.

Turning to “145 (LLAVVPAVALAP; Amino acid Sequence of aMTD145) [compound 145]”, under setting [1], the “Relative Ratio (Fold) A” value is 9.5 Fold. For the same substance, under setting [2], the “Relative Ratio (Fold) B” value was found to be 6.3 Fold. Also, the “Relative Ratio (Fold) C” value under setting [3] amounted to 3.2 Fold.

For the substance “161 (AVIALPALIAAP; Amino acid Sequence of aMTD161) [compound 161]”, under setting [1], the “Relative Ratio (Fold) A” value came to 34.5 Fold. The “Relative Ratio (Fold) B” value under setting [2] is 23.0 Fold. In addition, the “Relative Ratio (Fold) C” value under setting [3] is listed as 11.6 Fold.

“167 (VAIAIPAALAIP; Amino acid Sequence of rPeptide ID 167) [compound 167]”: the “Relative Ratio to aMTD AVE” value under setting [7] turned out to be 0.50.

Take “182 (ALIAPVVALVAP; Amino acid Sequence of aMTD182) [compound 182]”: the “Relative Ratio (Fold) A” value under setting [4] turned out to be 4.0 Fold. For the same substance, under setting [5], the “Relative Ratio (Fold) C” value came to 1.4 Fold. In addition, under setting [6], the “Relative Ratio (Fold) B” value was determined as 2.7 Fold.

“183 (LLAAPVVIALAP; Amino acid Sequence of aMTD183) [compound 183]”: under setting [4], the “Relative Ratio (Fold) A” value worked out at 6.0 Fold. Besides, under setting [5], the “Relative Ratio (Fold) C” value was determined as 2.0 Fold. For the same substance, the “Relative Ratio (Fold) B” value under setting [6] is reported as 4.0 Fold.

Turning to “184 (LAAIVPAIIAVP; Amino acid Sequence of aMTD184) [compound 184]”, the “Relative Ratio (Fold) A” value under setting [4] came to 4.8 Fold. The “Relative Ratio (Fold) C” value under setting [5] is on record as 1.6 Fold. Also, the “Relative Ratio (Fold) B” value under setting [6] is on record as 3.2 Fold.

Take “185 (AALVLPLIIAAP; Amino acid Sequence of aMTD185) [compound 185]”: the “Relative Ratio (Fold) A” value under setting [1] was 8.5 Fold. Further, the “Relative Ratio (Fold) B” value under setting [2] is reported as 5.7 Fold. The “Relative Ratio (Fold) C” value under setting [3] is on record as 2.9 Fold.

“201 (LALAVPALAALP; Amino acid Sequence of aMTD201) [compound 201]”: the “Relative Ratio (Fold) A” value under setting [4] is recorded as 4.2 Fold. Besides, under setting [5], the “Relative Ratio (Fold) C” value turned out to be 1.4 Fold. Moreover, the “Relative Ratio (Fold) B” value under setting [6] amounted to 2.8 Fold.

“221 (AAILAPIVALAP; Amino acid Sequence of aMTD221) [compound 221]”: under setting [1], the “Relative Ratio (Fold) A” value came out at 10.9 Fold. The “Relative Ratio (Fold) B” value under setting [2] was determined as 7.3 Fold. The “Relative Ratio (Fold) C” value under setting [3] is on record as 3.7 Fold.

Consider “222 (ALLIAPAAVIAP; Amino acid Sequence of aMTD222) [compound 222]”, for which, under setting [1], the “Relative Ratio (Fold) A” value was determined as 32.6 Fold. Further, the “Relative Ratio (Fold) B” value under setting [2] turned out to be 21.7 Fold. Also, under setting [3], the “Relative Ratio (Fold) C” value is 11.0 Fold.

As for “223 (AILAVPIAVVAP; Amino acid Sequence of aMTD223) [compound 223]”, the “Relative Ratio (Fold) A” value under setting [1] came out at 33.0 Fold. Under setting [2], the “Relative Ratio (Fold) B” value turned out to be 22.1 Fold. Besides, the “Relative Ratio (Fold) C” value under setting [3] is listed as 11.2 Fold.

For “225 (VAALLPAAAVLP; Amino acid Sequence of aMTD225) [compound 225]”, the “Relative Ratio (Fold) A” value under setting [1] amounted to 18.3 Fold. Further, under setting [2], the “Relative Ratio (Fold) B” value was found to be 12.2 Fold. Further, the “Relative Ratio (Fold) C” value under setting [3] was 6.2 Fold.

Consider “227 (LAAIVPIAAAVP; Amino acid Sequence of rPeptide ID 227) [compound 227]”, for which the “Relative Ratio to aMTD AVE” value under setting [7] was found to be 0.08.

With “241 (AAAVVPVLLVAP; Amino acid Sequence of aMTD241) [compound 241]”, under setting [1], the “Relative Ratio (Fold) A” value was found to be 16.6 Fold. Moreover, the “Relative Ratio (Fold) B” value under setting [2] worked out at 11.0 Fold. Also, the “Relative Ratio (Fold) C” value under setting [3] is 5.6 Fold. Besides, the “Relative Ratio to aMTD AVE” value under setting [7] stood at 0.33.

Regarding “242 (AALLVPALVAAP; Amino acid Sequence of aMTD242) [compound 242]”, under setting [1], the “Relative Ratio (Fold) A” value is reported as 14.6 Fold. Further, the “Relative Ratio (Fold) B” value under setting [2] came out at 9.7 Fold. Also, the “Relative Ratio (Fold) C” value under setting [3] came out at 4.9 Fold.

As to “243 (AAVLLPVALAAP; Amino acid Sequence of aMTD243) [compound 243]”, the “Relative Ratio (Fold) A” value under setting [4] came out at 5.9 Fold. Besides, under setting [5], the “Relative Ratio (Fold) C” value stood at 2.0 Fold. Besides, the “Relative Ratio (Fold) B” value under setting [6] was 3.9 Fold.

“245 (AAALAPVLALVP; Amino acid Sequence of aMTD245) [compound 245]”: under setting [1], the “Relative Ratio (Fold) A” value is on record as 7.5 Fold. For the same substance, the “Relative Ratio (Fold) B” value under setting [2] amounted to 5.0 Fold. The “Relative Ratio (Fold) C” value under setting [3] is 2.5 Fold.

“261 (LVLVPLLAAAAP; Amino acid Sequence of aMTD261) [compound 261]”: under setting [1], the “Relative Ratio (Fold) A” value was 18.5 Fold. For the same substance, under setting [2], the “Relative Ratio (Fold) B” value is listed as 12.3 Fold. Besides, under setting [3], the “Relative Ratio (Fold) C” value was determined as 6.2 Fold.

With “262 (ALIAVPAIIVAP; Amino acid Sequence of aMTD262) [compound 262]”, under setting [4], the “Relative Ratio (Fold) A” value came to 5.5 Fold. Further, under setting [5], the “Relative Ratio (Fold) C” value worked out at 1.9 Fold. In addition, the “Relative Ratio (Fold) B” value under setting [6] was 3.7 Fold.

As to “263 (ALAVIPAAAILP; Amino acid Sequence of aMTD263) [compound 263]”, the “Relative Ratio (Fold) A” value under setting [1] is recorded as 9.0 Fold. Moreover, under setting [2], the “Relative Ratio (Fold) B” value was 6.0 Fold. Also, the “Relative Ratio (Fold) C” value under setting [3] amounted to 3.0 Fold.

For “264 (LAAAPVVIVIAP; Amino acid Sequence of aMTD264) [compound 264]”, the “Relative Ratio (Fold) A” value is, setting by setting: under setting [1], 18.2 Fold; (relative cell-permeability of aMTD vs reference A (not defined)) 18.2 Fold. The “Relative Ratio (Fold) B” value reads like this: under setting [2], 12.1 Fold; (relative cell-permeability of aMTD vs reference CPP B: MTM12) 12.1 Fold. Further, the “Relative Ratio (Fold) C” value was 6.1 Fold under setting [3] and 6.1 Fold (relative cell-permeability of aMTD vs reference CPP C: MTD85).

With “265 (VLAIAPLLAAVP; Amino acid Sequence of aMTD265) [compound 265]”, the “Relative Ratio (Fold) A” value under setting [4] turned out to be 6.0 Fold. Under setting [5], the “Relative Ratio (Fold) C” value is on record as 2.0 Fold. Under setting [6], the “Relative Ratio (Fold) B” value turned out to be 4.0 Fold.

With “281 (ALIVLPAAVAVP; Amino acid Sequence of aMTD281) [compound 281]”, the “Relative Ratio (Fold) A” value reads like this: under setting [1], 13.3 Fold; under setting [4], 13.3 Fold. Also, the “Relative Ratio (Fold) B” value is 8.9 Fold under setting [2] and 8.9 Fold under setting [6]. For the same substance, the “Relative Ratio (Fold) C” value reads like this: under setting [3], 4.5 Fold; under setting [5], 4.5 Fold.

For “282 (VLAVAPALIVAP; Amino acid Sequence of aMTD282) [compound 282]”, under setting [1], the “Relative Ratio (Fold) A” value was determined as 11.8 Fold. The “Relative Ratio (Fold) B” value under setting [2] turned out to be 7.9 Fold. Further, the “Relative Ratio (Fold) C” value under setting [3] was 4.0 Fold.

Regarding “283 (AALLAPALIVAP; Amino acid Sequence of aMTD283) [compound 283]”, the “Relative Ratio (Fold) A” value under setting [4] came out at 3.1 Fold. Moreover, the “Relative Ratio (Fold) C” value under setting [5] is 1.0 Fold. In addition, the “Relative Ratio (Fold) B” value under setting [6] came out at 2.0 Fold.

With “284 (ALIAPAVALIVP; Amino acid Sequence of aMTD284) [compound 284]”, the “Relative Ratio (Fold) A” value under setting [4] is 2.8 Fold. Also, the “Relative Ratio (Fold) C” value under setting [5] amounted to 0.9 Fold. Moreover, under setting [6], the “Relative Ratio (Fold) B” value came to 1.8 Fold.

In the case of “285 (AIVLLPAAVVAP; Amino acid Sequence of aMTD285) [compound 285]”, the “Relative Ratio (Fold) A” value under setting [1] is recorded as 13.3 Fold. In addition, the “Relative Ratio (Fold) B” value under setting [2] is given as 9.9 Fold. Also, under setting [3], the “Relative Ratio (Fold) C” value was determined as 4.5 Fold.

As for “301 (VIAAPVLAVLAP; Amino acid Sequence of aMTD301) [compound 301]”, under setting [4], the “Relative Ratio (Fold) A” value was 6.0 Fold. Moreover, under setting [5], the “Relative Ratio (Fold) C” value was determined as 2.0 Fold. Further, the “Relative Ratio (Fold) B” value under setting [6] is 4.0 Fold.

In the case of “302 (LALAPALALLAP; Amino acid Sequence of aMTD302) [compound 302]”, under setting [1], the “Relative Ratio (Fold) A” value worked out at 10.2 Fold. Also, the “Relative Ratio (Fold) B” value under setting [2] was determined as 6.8 Fold. Also, the “Relative Ratio (Fold) C” value under setting [3] turned out to be 3.4 Fold.

With “304 (AIILAPIAAIAP; Amino acid Sequence of aMTD304) [compound 304]”, the “Relative Ratio (Fold) A” value under setting [4] is 4.4 Fold. Also, the “Relative Ratio (Fold) C” value under setting [5] is listed as 1.5 Fold. Besides, the “Relative Ratio (Fold) B” value under setting [6] is 3.0 Fold.

For “305 (IALAAPILLAAP; Amino acid Sequence of aMTD305) [compound 305]”, the “Relative Ratio (Fold) A” value under setting [4] is recorded as 4.8 Fold. Further, the “Relative Ratio (Fold) C” value under setting [5] was found to be 1.6 Fold. Also, the “Relative Ratio (Fold) B” value under setting [6] amounted to 3.2 Fold.
